Measured values reported in patent publication US20260327263A1, “Anti-Bacterial Peptides” (priority 2023, published 2026).
Converted amounts (≈) assume the structure as drawn. Where two headings read alike, the source gives them in different places. Where a SMILES comes first, the peptide text is derived from it. Where no end group is shown, it is not given here. [ ]: non-standard residue; d: D form. d2Nal = N[C@H](Cc1ccc2ccccc2c1)C(=O)O; Aib = CC(C)(N)C(=O)O

Tests used:
[1] = system: Pseudomonas aeruginosa (PA); test: Broth microdilution anti-bacterial assay (CLSI), Pseudomonas aeruginosa; assay type: cell-based, Pseudomonas aeruginosa (ATCC 14213)
Protocol: (§1) To evaluate their anti-bacterial potency, broth microdilution method as per the CLSI guidelines 1 was used. […] The anti-bacterial potency of the tested agents is quantified using minimum inhibitory concentration (MIC) and minimum bactericidal concentration (MBC). […] To obtain the MBC data, 1X, 2X and 4× MIC of the peptide variants were plated to obtain the number of viable colonies compared to the original inoculum.
(§2) Pseudomonas aeruginosa (ATCC 14213, PA), and methicillin resistant Staphylococcus aureus (BAA1717-USA 300, SA) were obtained from The American Type Culture Collection (ATCC).
(§3) Examination of the potency of modified short peptides against PA and SA strains was performed by using the broth microdilution protocol from the Clinical and Laboratory Standards Institute (CLSI) guidelines (CLSI 2012) as described. Briefly, five freshly plated bacteria colonies were grown in cation adjusted MH2 broth (BD Biosciences) in a shaker incubator at 37° C., 220 RPM. Cells were grown to an optical density (OD600) of ~0.2 measured using a Microplate Spectrophotometer (Molecular Devices Spectra Max Plus). 100 μL of microbial culture containing ~5×10^5 CFU/mL of bacteria in the respective broths were introduced into each well containing 100 μL of peptides and incubated overnight at 37° C. Next, to check the bactericidal effects, 100 μL from each well was transferred and spread on sterile MH2 agar plates. The plates were incubated overnight at 37° C. and the number of colonies forming units (CFU) were calculated the following day. Readings of bacteria grown in media without any treatments were normalized to 100% as media control. For the mixed infection study, three freshly plated bacteria colonies each from PA, SA and ST plates were grown together in cation adjusted MH2 broth and proceeded as described above.

[2] = system: Staphylococcus aureus (SA); test: Broth microdilution anti-bacterial assay (CLSI), Staphylococcus aureus; assay type: cell-based
Protocol: as §1, §2, §3

[3] = system: Pseudomonas aeruginosa (PA); test: Combination of peptide with antibiotics against PA; assay type: cell-based; details: with gentamicin and piperacillin
From the text: In view of the results above, the peptide variants as described herein show synergistic anti-bacterial effects when used in combination with antibiotics.
In some examples, the methods described herein further comprises administering an antibiotic agent to the subject.

[4] = system: mixed bacterial infection (PA, SA and ST); test: Broth microdilution, mixed bacterial infection; assay type: cell-based
Protocol: Chronic wounds mostly present mixed infections where numerous pathogens colonize together.
as §3

[5] = system: Pseudomonas aeruginosa PA BAA-2110; test: Broth microdilution, PA BAA-2110 (lung infection in cystic fibrosis); assay type: cell-based, Pseudomonas aeruginosa (BAA-2110); details: Pseudomonas aeruginosa, BAA2110
Protocol: (§4) Bacteria strains involved in lung infection in cystic fibrosis patients (PA-BAA 2110) and ear-eye infections (PA-CRM 9027) are treated with exemplary variant peptides, such as E1AM2 and Q19L.
as §3

[6] = system: Pseudomonas aeruginosa PA CRM-9027; test: Broth microdilution, PA CRM-9027 (ear-eye infections); assay type: cell-based, Pseudomonas aeruginosa (CRM-9027); details: Pseudomonas aeruginosa, PACRM9027
Protocol: as §4, §3

[7] = system: Pseudomonas aeruginosa (PA); test: Antimicrobial resistance evolution assay, PA; assay type: cell-based; details: serial passaging, 28 days; resistance = >4-fold MIC change
From the text: The development of antimicrobial resistance is defined by greater than a 4-fold change to their initial minimum inhibitory concentration (MIC) at day 1. Exemplary bacteria strains Pseudomonas aeruginosa (PA) and Staphylococcus aureus (SA) are subjected to continuous daily serial passaging over several days, with treatment of exemplary variant peptides E1AM2 (SEQ ID NO: 2) and Q19L (SEQ ID NO: […]) at subinhibitory concentrations. […] The treatments were discontinued when the MIC increased by more than four-fold from the initial MIC or when MIC reached >100 μM.
Briefly, sequential passaging of PA, and SA cells was done with sub-inhibitory concentrations of antibiotics or E1AM2 up to 4 weeks. The cells grown in those concentrations of antibiotics or peptides were diluted to A600 nm (OD600) of ~0.2 and serially passaged daily with the same concentrations at 37° C. with agitation at 24 h intervals.

[8] = PA, overnight, 37° C., ≥99% inhibition
[9] = SA, overnight, 37° C., ≥99% inhibition

Compound	MIC [1, 8]	MBC ([1]; PA, ≥99% killing)	MIC [2, 9]	MBC ([2]; SA, ≥99% killing)	MBC ([4]; mixed infection)	further results
CC(C)C[C@H](NC(=O)[C@H](CO)NC(=O)[C@H](CC(C)C)NC(=O)[C@H](C)NC(=O)[C@H](CC(C)C)NC(=O)[C@H](CCCCN)NC(=O)[C@H](CC(C)C)NC(=O)C(C)(C)NC(=O)[C@H](CCCCN)NC(=O)[C@H](CCCCN)NC(=O)[C@H](CO)NC(=O)[C@H](CC(C)C)NC(=O)[C@H](CCCCN)NC(=O)[C@H](CC(C)C)NC(=O)[C@H](Cc1c[nH]c2ccccc12)NC(=O)[C@H](CCCCN)NC(=O)[C@H](CCCCN)NC(=O)[C@H](CC(C)C)NC(=O)[C@H](CC(C)C)NC(=O)[C@H](CCCCN)NC(=O)[C@@H](N)CCCCN)C(N)=O [V8LQ19LA14Aib] (H-KKLLKKWLKLSKK[Aib]LKLALSL-NH2)	3.126 µM (≈ 7.7 µg/mL)	6.25 µM (≈ 15.4 µg/mL)	3.125 µM (≈ 7.7 µg/mL)	6.25 µM (≈ 15.4 µg/mL)	–	–
KKLLKKWVKLKKKALKLAQSL-NH2 [S11K]	12.5 µM	12.5 µM	12.5 µM	12.5 µM	–	–
CC(C)C[C@@H](NC(=O)[C@@H](C)NC(=O)[C@@H](CC(C)C)NC(=O)[C@@H](CCCCN)NC(=O)[C@@H](CC(C)C)NC(=O)[C@@H](C)NC(=O)[C@@H](CCCCN)NC(=O)[C@@H](CCCCN)NC(=O)[C@@H](CO)NC(=O)[C@@H](CC(C)C)NC(=O)[C@@H](CCCCN)NC(=O)[C@@H](CC(C)C)NC(=O)[C@@H](Cc1ccc2ccccc2c1)NC(=O)[C@@H](CCCCN)NC(=O)[C@@H](CCCCN)NC(=O)[C@@H](CC(C)C)NC(=O)[C@@H](CC(C)C)NC(=O)[C@@H](CCCCN)NC(=O)[C@H](N)CCCCN)C(N)=O [E1AM2 D-W72Nal V8L Q19L C-2-NH2] (H-[dK][dK][dL][dL][dK][dK][d2Nal][dL][dK][dL][dS][dK][dK][dA][dL][dK][dL][dA][dL]-NH2)	1.56 µM (≈ 3.53 µg/mL)	1.56 µM (≈ 3.53 µg/mL)	1.56 µM (≈ 3.53 µg/mL)	1.56 µM (≈ 3.53 µg/mL)	–	MBC in combination with gentamicin and piperacillin [3]: reduced minimum bactericidal concentration (MBC); MIC in combination with gentamicin and piperacillin [3]: reduced minimum inhibitory concentration (MIC)
KKLLKKWVKLSKKALKLAQSL-NH2 [E1AM2-NH2]	3.125 µM	6.25 µM	6.25 µM	12.5 µM	6.25 µM	MIC ([4]; mixed infection): 6.25 µM
CCN1CCN(C(=O)N[C@@H](C(=O)N[C@@H]2C(=O)N3[C@@H]2SC(C)(C)[C@@H]3C(=O)O)c2ccccc2)C(=O)C1=O [Piperacillin, (2S,5R,6R)-6-{[(2R)-2-[(4-ethyl-2,3-dioxo-piperazine-1-carbonyl)amino]-2-phenyl-acetyl]amino}-3,3-dimethyl-7-oxo-4-thia-1-azabicyclo[3.2.0]heptane-2-carboxylic acid]	–	–	–	–	25 µM (≈ 12.9 µg/mL)	MBC ([1]; Pseudomonas aeruginosa): 50 µM (≈ 25.9 µg/mL); MIC ([1]; Pseudomonas aeruginosa): 25 µM (≈ 12.9 µg/mL); MBC ([2]; Staphylococcus aureus): 12.5 µM (≈ 6.47 µg/mL); MIC ([2]; Staphylococcus aureus): 6.25 µM (≈ 3.23 µg/mL); MIC [4]: 25 µM (≈ 12.9 µg/mL); MBC [5]: 25 µM (≈ 12.9 µg/mL); MIC [5]: 12.5 µM (≈ 6.47 µg/mL); MBC [6]: 6.25 µM (≈ 3.23 µg/mL); MIC [6]: 6.25 µM (≈ 3.23 µg/mL); development of antimicrobial resistance, PA [7]: developed resistance
KKLLKKWLKLSKKALKLA-NH2 [V8LQ19L C-3]	>6.25 µM	>6.25 µM	>6.25 µM	>8.26 µM	–	anti-bacterial activity (in words) ([1]; PA and SA): strong potency
